Consider five molecules from patent US12528837B2, “Aryl substituted polymyxin derivatives” (priority 2018, dated 2026).

Data set [1] in a line: Kidney drug level after subcutaneous dose in mouse. The class given is in vivo. The following applies: mouse, in vivo. How it is done: Four hours after dosing the animals were euthanised and kidneys removed, trimmed of fat and connective tissue, weighed and immediately snap-frozen. After thawing at room temperature, pairs of kidneys from each animal were placed in 2 mL conical tubes containing pre-weighed ceria-stabilised zirconium oxide beads. […] After 10 min. centrifugation at 13,000 rpm and 6° C., 200 μl of the supernatants were transferred into glass inserts and analysed by LC-MS-MS.

The test system of another data set is HK-2 cells. The experiment in a line: In vitro renal cell toxicity assay (HK-2). Type of data set: cell-based. The protocol:
The in vitro renal cell toxicity assay was performed according to the following protocol. […] Cells were seeded at 7,500 cells per well in 96-well plates and allowed to adhere overnight. […] Water and DMSO levels were kept constant at 5% and 0.5% respectively. The test compounds were incubated with cells for 24 h at 37° C. 5% CO2 in a humidified atmosphere. […] Media only background values were subtracted before the data was analysed using GraphPad Prism. Individual values were normalised to the vehicle control wells for each compound. Compound concentration values were plotted as log values to enable a dose-response curve to be fitted. The bottom of the curve was constrained to zero and IC50 values were determined. IC50 values are expressed relative to that for PMB in the same experiment. Where multiple determinations have been made, median values are presented.

Another data set concerns P. aeruginosa ATCC 27853. The class given is cell-based. The following applies: ATCC 27853. How it is done:
(§1) The inoculum was prepared by making a direct suspension of isolated colonies (selected from an 18-24 hour Mueller-Hinton agar plate) adjusted to the 0.5 McFarland standard. […] The assays were performed in duplicate. […] The MIC values are quoted in μg/mL.

The subject of a further data set is K. pneumoniae ATCC 13822. The class given is cell-based. The following applies: ATCC 13822. How it is done: as §1
For the next data set, the system named is E. coli CA58. The class given is cell-based. To be noted: CA58. The protocol: (§2) The inoculum was prepared by making a direct suspension of isolated colonies (selected from an 18-24 hour Mueller-Hinton agar plate) adjusted to the 0.5 McFarland standard. […] The assays were performed in duplicate. […] Several of the compounds were subjected to multiple tests, and where this is the case, the MIC presented is the median value obtained. The MIC values are quoted in μg/mL.

Another data set deals with K. pneumoniae CA64. Type of data set: cell-based. The following applies: CA64. The protocol: as §2
A further data set has as its system P. aeruginosa CCUG 59347. Type of data set: cell-based. The following applies: CCUG 59347. The protocol:
as §2

The test system of another data set is E. coli ATCC 25922. Type of data set: cell-based. To be noted: ATCC 25922. How it is done:
as §1

In another data set the test system is A. baumannii NCTC 13424. Type of data set: cell-based. To be noted: NCTC 13424. The protocol: as §1

Converted amounts (≈) assume the structure as drawn. Where a SMILES comes first, the peptide text is derived from it. Bridges are numbered along the chain shown (N, C = ends). [ ]: non-standard residue; d: D form. The star is where a group is joined. X23 = NC[C@H](CC(=O)*)c1cccc(-c2ccsc2)c1; X18 = NC[C@@H](CC(=O)*)c1cc(Cl)cc(Cl)c1; X22 = CC(C)Cc1cccc([C@H](CN)CC(=O)*)c1; X24 = NCC[C@@H](C(=O)*)c1ccc(Cl)cc1; X25 = NCC[C@@H](C(=O)*)c1cccc(Cl)c1; dNle = CCCC[C@@H](N)C(=O)O; Dab = NCC[C@H](N)C(=O)O; Abu = CC[C@H](N)C(=O)O; Dap = NC[C@H](N)C(=O)O

On to `CC(C)C[C@@H]1NC(=O)[C@@H](Cc2ccccc2)NC(=O)[C@H](CCN)NC(=O)[C@@H](NC(=O)[C@H](CN)NC(=O)[C@@H](NC(=O)[C@H](CCN)c2ccc(Cl)cc2)[C@@H](C)O)CCNC(=O)[C@H]([C@@H](C)O)NC(=O)[C@H](CCN)NC(=O)[C@H](CCN)NC1=O` [reference compound] (X24-T[Dap][Dab][Dab][dF]L[Dab][Dab]T; lactam 3-C), for which the “4 hr kidney level/rel. cytotoxicity” value in data set [1] stood at 111. Further, the “Drug Level in Kidney (μg/g kidney, 4 h)” value in data set [1] (sc, 17.2 mg/kg) is reported as 533 μg/g kidney. The “Cytotoxicity (measured IC50 relative to that recorded for Polymyxin B)” value in the data set with HK-2 cells was 4.8.

For `CC[C@@H]1NC(=O)[C@@H](CC(C)C)NC(=O)[C@H](CCN)NC(=O)[C@@H](NC(=O)[C@H](CN)NC(=O)[C@@H](NC(=O)C[C@@H](CN)c2cccc(-c3ccsc3)c2)[C@@H](C)O)CCNC(=O)[C@H]([C@@H](C)O)NC(=O)[C@H](CCN)NC(=O)[C@H](CCN)NC1=O` [Example 31, (R)-4-amino-3-(3- (thiophen-3-yl)phenyl)butanoyl- Thr-Dap-Cyclo[Dab- Dab-DLeu-Abu-Dab- Dab-Thr]] (X23-T[Dap][Dab][Dab][dL][Abu][Dab][Dab]T; lactam 3-C), in the data set on P. aeruginosa ATCC 27853, the “MIC P. aeruginosa ATCC 27853” value came out at 0.25 µg/mL (≈ 0.221 µM). The “MIC K. pneumoniae ATCC 13822” value against K. pneumoniae ATCC 13822 was found to be 0.25 µg/mL (≈ 0.221 µM). The “MIC E. coli CA58” value in the data set with E. coli CA58 is 16 µg/mL (≈ 14.2 µM). Also, in the data set with K. pneumoniae CA64, the “MIC K. pneumoniae CA64” value worked out at 4 µg/mL (≈ 3.54 µM). In the data set on P. aeruginosa CCUG 59347, the “MIC P. aeruginosa CCUG 59347” value was 0.25 µg/mL (≈ 0.221 µM).

For the molecule `CC[C@@H]1NC(=O)[C@@H](CC(C)C)NC(=O)[C@H](CCN)NC(=O)[C@@H](NC(=O)[C@H](CN)NC(=O)[C@@H](NC(=O)C[C@@H](CN)c2cccc(CC(C)C)c2)[C@@H](C)O)CCNC(=O)[C@H]([C@@H](C)O)NC(=O)[C@H](CCN)NC(=O)[C@H](CCN)NC1=O` [Example 27, (R)-4-amino-3-(3- isobutylphenyl)butanoyl- Thr- Dap- Cyclo[Dab-Dab-DLeu- Abu-Dab-Dab-Thr]] (X22-T[Dap][Dab][Dab][dL][Abu][Dab][Dab]T; lactam 3-C), the “MIC E. coli ATCC 25922” value against E. coli ATCC 25922 came out at 0.25 µg/mL (≈ 0.226 µM). The “MIC P. aeruginosa ATCC 27853” value with P. aeruginosa ATCC 27853 was determined as 0.5 µg/mL (≈ 0.453 µM). For the same molecule, the “MIC K. pneumoniae ATCC 13822” value in the data set on K. pneumoniae ATCC 13822 is 0.25 µg/mL (≈ 0.226 µM). In addition, the “MIC E. coli CA58” value against E. coli CA58 was determined as 16 µg/mL (≈ 14.5 µM). In addition, the “MIC K. pneumoniae CA64” value with K. pneumoniae CA64 was 2 µg/mL (≈ 1.81 µM). In addition, the “MIC P. aeruginosa CCUG 59347” value against P. aeruginosa CCUG 59347 was 0.5 µg/mL (≈ 0.453 µM).

As to `CCCC[C@H]1NC(=O)[C@H](CCN)NC(=O)[C@@H](NC(=O)[C@H](CN)NC(=O)[C@@H](NC(=O)C[C@H](CN)c2cc(Cl)cc(Cl)c2)[C@@H](C)O)CCNC(=O)[C@H]([C@@H](C)O)NC(=O)[C@H](CCN)NC(=O)[C@H](CCN)NC(=O)[C@H](CC)NC1=O` [Example 28, (S)-4-amino-3-(3,5- dichlorophenyl)butanoyl- Thr-Dap- Cyclo[Dab-Dab- DnorLeu-Abu-Dab- Dab-Thr]] (X18-T[Dap][Dab][Dab][dNle][Abu][Dab][Dab]T; lactam 3-C), the “MIC A. baumannii NCTC 13424” value in the data set on A. baumannii NCTC 13424 stood at 0.06 µg/mL (≈ 0.0537 µM). For the same molecule, in the data set with P. aeruginosa ATCC 27853, the “MIC P. aeruginosa ATCC 27853” value came to 0.25 µg/mL (≈ 0.224 µM). Further, the “MIC E. coli CA58” value against E. coli CA58 was determined as 16 µg/mL (≈ 14.3 µM). In the data set on K. pneumoniae CA64, the “MIC K. pneumoniae CA64” value was 8 µg/mL (≈ 7.16 µM). For the same molecule, in the data set on P. aeruginosa CCUG 59347, the “MIC P. aeruginosa CCUG 59347” value amounted to 0.25 µg/mL (≈ 0.224 µM). In data set [1] (sc, 17.2 mg/kg), this molecule yielded a tissue level at time at 4 h of 408000 ng/g. For the same molecule, in the data set on HK-2 cells, the “HK-2 rel to PMB” value is recorded as 68.5.

In the case of `CC(C)C[C@@H]1NC(=O)[C@@H](Cc2ccccc2)NC(=O)[C@H](CCN)NC(=O)[C@@H](NC(=O)[C@H](CN)NC(=O)[C@@H](NC(=O)[C@H](CCN)c2cccc(Cl)c2)[C@@H](C)O)CCNC(=O)[C@H]([C@@H](C)O)NC(=O)[C@H](CCN)NC(=O)[C@H](CCN)NC1=O` [reference compound] (X25-T[Dap][Dab][Dab][dF]L[Dab][Dab]T; lactam 3-C), in data set [1], the “4 hr kidney level/rel. cytotoxicity” value worked out at 115. Besides, the “Drug Level in Kidney (μg/g kidney, 4 h)” value in data set [1] (sc, 17.2 mg/kg) is given as 589 μg/g kidney. In the data set with HK-2 cells, the “Cytotoxicity (measured IC50 relative to that recorded for Polymyxin B)” value is recorded as 5.1.
